Source: patent US7700621B2, “6-alkenyl-, 6-alkinyl- and 6-epoxy-epothilone derivatives, process for their production, and their use in pharmaceutical preparations” (Bayer Schering Pharma Aktiengesellschaft, priority 1999, dated 2010)

System: multi-drug-resistant NCl/ADR-carcinoma cell line
Experiment: Growth inhibition of multi-drug-resistant NCl/ADR carcinoma cell line, crystal-violet assay
Format: cell-based, human
Conditions: ratio of IC50 NCl/ADR to IC50 MCF-7
From the text: In Vitro Activity of Epothilone Derivatives on Human Tumor Cell Lines
a) IC50 values [nM] for the growth inhibition of human MCF-7-breast and multi-drug-resistant NCl/ADR-carcinoma cell lines of epothilone derivatives with 13Z-unsaturated in the crystal-violet assay in comparison to Taxol.
b) IC50 values [nM] for the growth inhibition of human MCF-7-breast- and multi-drug-resistant NCl/ADR carcinoma cell lines of epothilone derivative with 13,14-α-epoxide, which was formed from the 13-Z-configured double bond in the crystal-violet assay in comparison to Taxol.
c) IC50 values [nM] for the growth inhibition of human MCF-7-breast- and multi-drug-resistant NCl/ADR-carcinoma cell lines of epothilone derivatives with 13,14-epoxide, which was formed from the 13-E-configured double bond, in a crystal-violet assay in comparison to Taxol.

In order of rising “Selectivity = IC50 (NCl/ADR) : IC50 (MCF-7)” value:
1. C=CCC[C@H]1C(=O)C(C)(C)[C@@H](O)CC(=O)O[C@H](/C(C)=C/c2ccccn2)C[C@@H]2O[C@]2(C)CCC[C@H](C)[C@@H]1O [Example 5A, (1S,3S(E),7S,10R,11S,12S,16R)-7,11-Dihydroxy-10-(but-3-en-1-yl)-3-(1-methyl-2-(2-pyridyl)ethenyl)-8,8,12,16-tetramethyl-4,17-dioxabicyclo[14.1.0]heptadecane-5,9-dione]  1.2
2. C=CC[C@H]1C(=O)C(C)(C)[C@@H](O)CC(=O)O[C@H](/C(C)=C/c2csc(C)n2)C[C@H]2O[C@]2(C)CCC[C@H](C)[C@@H]1O [Example 12A or B]  1.5
3. C#CC[C@H]1C(=O)C(C)(C)[C@@H](O)CC(=O)O[C@H](/C(F)=C/c2coc(C)n2)C/C=C(/C)CCC[C@H](C)[C@@H]1O [Example 27, (4S,7R,8S,9S,13Z,16S(Z))-4,8-Dihydroxy-16-(1-fluoro-2-(2-methyloxazol-4-yl)ethenyl)-7-(prop-2-in-1-yl)-1-oxa-5,5,9,13-tetramethyl-cyclohexadec-13-ene-2,6-dione]  1.6
4. C=CC[C@H]1C(=O)C(C)(C)[C@@H](O)CC(=O)O[C@H](/C(C)=C/c2csc(C)n2)C/C=C(/C)CCC[C@H](C)[C@@H]1O [Example 9, (4S,7R,8S,9S,13Z,16S(E))-4,8-Dihydroxy-16-(1-methyl-2-(2-methylthiazol-4-yl)ethenyl)-1-oxa-5,5,9,13-tetramethyl-7-(prop-2-en-1-yl)-cyclohexadec-13-ene-2,6-dione]  2.4
5. C#CCC[C@H]1C(=O)C(C)(C)[C@@H](O)CC(=O)O[C@H](/C(C)=C/c2ccccn2)C/C=C(/C)CCC[C@H](C)[C@@H]1O [Example 1, (4S,7R,8S,9S,13Z,16S(E))-4,8-Dihydroxy-16-(1-methyl-2-(2-pyridyl)ethenyl)-1-oxa-5,9,13-tetramethyl-7-(but-3-in-1-yl)-cyclohexadec-13-ene-2,6-dione]  2.5
6. C=CCC[C@H]1C(=O)C(C)(C)[C@@H](O)CC(=O)O[C@H](/C(C)=C/c2ccccn2)C/C=C(/C)CCC[C@H](C)[C@@H]1O [Example 2, (4S,7R,8S,9S,13Z,16S(E))-4,8-Dihydroxy-16-(1-methyl-2-(2-pyridyl)ethenyl)-1-oxa-5,5,9,13-tetramethyl-7-(but-3-en-1-yl)-cyclohexadec-13-ene-2,6-dione]  2.8
7. C=CC[C@H]1C(=O)C(C)(C)[C@@H](O)CC(=O)O[C@H](/C(C)=C/c2csc(C)n2)C[C@@H]2O[C@]2(C)CCC[C@H](C)[C@@H]1O [Example 10A, (1S,3S(E),7S,10R,11S,12S,16R)-7,11-Dihydroxy-10-(prop-2-en-1-yl)-3-(1-methyl-2-(2-methylthiazol-4-yl)ethenyl)-8,8,12,16-tetramethyl-4,17-dioxabicyclo[14.1.0]heptadecane-5,9-dione]  3.0
8. C#CC[C@H]1C(=O)C(C)(C)[C@@H](O)CC(=O)O[C@H](/C(F)=C/c2csc(C)n2)C[C@@H]2O[C@@]2(C)CCC[C@H](C)[C@@H]1O [Example 26A or B]  3.3
9. C#CC[C@H]1C(=O)C(C)(C)[C@@H](O)CC(=O)O[C@H](/C(F)=C/c2csc(C)n2)C[C@@H]2O[C@]2(C)CCC[C@H](C)[C@@H]1O [Example 25, (1S,3S(Z),7S,10R,11S,12S,16R)-7,11-Dihydroxy-3-(1-fluoro-2-(2-methyl-4-thiazolyl)ethenyl)-10-(prop-2-in-1-yl)-8,8,12,16-tetramethyl-4,17-dioxabicyclo[14.1.0]heptadecane-5,9-dione]  4.8
10. C#CC[C@H]1C(=O)C(C)(C)[C@@H](O)CC(=O)O[C@H](/C(F)=C/c2csc(C)n2)C/C=C(/C)CCC[C@H](C)[C@@H]1O [Example 23, (4S,7R,8S,9S,13Z,16S(Z))-4,8-Dihydroxy-16-(1-fluoro-2-(2-methylthiazol-4-yl)ethenyl)-7-(prop-2-in-1-yl)-1-oxa-5,5,9,13-tetramethyl-cyclohexadec-13-ene-2,6-dione]  5.6
11. C#CCC[C@H]1C(=O)C(C)(C)[C@@H](O)CC(=O)O[C@H](/C(C)=C/c2ccccn2)C[C@@H]2O[C@]2(C)CCC[C@H](C)[C@@H]1O [Example 4A, (1S,3S(E),7S,10R,11S,12S,16R)-7,11-Dihydroxy-10-(but-3-in-1-yl)-3-(1-methyl-2-(2-pyridyl)ethenyl)-8,8,12,16-tetramethyl-4,17-dioxabicyclo[14.1.0]heptadecane-5,9-dione]  7.0

Same assay, conditions: statement in words, compared with Taxol

`CC(=O)O[C@H]1C(=O)[C@@]2(C)[C@H]([C@H](OC(=O)c3ccccc3)[C@]3(O)C[C@H](OC(=O)[C@H](O)[C@@H](NC(=O)c4ccccc4)c4ccccc4)C(C)=C1C3(C)C)[C@]1(OC(C)=O)CO[C@@H]1C[C@@H]2O` [Taxol, reference compound] was tested, and the “action on the multi-drug-resistant cell line NCl/ADR” value was “not exhibited”.
